Experiment in all cases: NCI-60 cell line screen, 48 h
Test [1] deals with ACHN.
The subject of test [2] is BT-549.
In test [3] the test system is COLO 205.
Test [4] deals with HCC 2998.
The test system of test [5] is HCT-116.
In test [6] the test system is Hs-578T.
The subject of test [7] is MDA-N.
For test [8], the system named is Malme-3M.
The subject of test [9] is NCI-H226.
Test [10] deals with NCI/ADR-RES.
The test system of test [11] is SF-268.
Test [12] relates to SK-MEL-28.
Test [13] deals with SK-MEL-5.
Test [14] deals with SN12C.
The test system of test [15] is SNB-19.
Test [16] concerns U-251.
In test [17] the test system is UACC-62.
In test [18] the test system is UO-31.
The subject of test [19] is SF-539.
Test [20] has as its system SK-MEL-2.

Each structure is given as a SMILES string.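 Briefly, cells in 96-well plates were exposed to five compound concentrations for 48 h, and endpoints were estimated by linear interpolation. GI50 marks 50% less growth.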 Active and inactive are the calls of the source. No stated cut-off is given here; in the data, active = GI50 up to about 1.1 µM and inactive = higher. Where a SMILES comes first, the peptide text is derived from it. [ ]: non-standard residue; d: D form. pGlu = O=C1CC[CH](C(=O)O)N1

Take `Cc1ccc(-c2cc(-c3ccco3)c(C#N)c(=S)[nH]2)cc1`: the GI50 in test [1] was 35.6 µM (inactive); in test [2] it was 42.8 µM (inactive); in test [3], 97.3 µM (inactive); in [4], 67.5 µM (inactive); in test [5], 50.5 µM (inactive); in test [6], 38.5 µM (inactive). Besides, the GI50 was > 10 µM (inactive) in test [7]; 24.2 µM (inactive) in test [8]; 31.5 µM (inactive) in test [9]; > 100 µM (inactive) in [10]; 40.6 µM (inactive) in [11]; 20.8 µM (inactive) in test [12]. Moreover, the GI50 in test [13] is 22.8 µM (inactive); in test [14], 87.9 µM (inactive); in test [15] it was 32.1 µM (inactive); in test [16], 21.4 µM (inactive); in test [17], 26.8 µM (inactive); in test [18] it was 33.9 µM (inactive).
`Cc1ccc(S(=O)(=O)N2CCC[C@@H]2C(=O)O[C@@H]2CCC3CC=CC32)cc1` (stereo partly drawn): the GI50 in [1] is 38.5 µM (inactive); in test [2], 18.9 µM (inactive); in [3], 16.6 µM (inactive); in test [4] it was 31.5 µM (inactive); in [5] it was 30.4 µM (inactive); in test [6], 33.3 µM (inactive). Also, the GI50 was 29.2 µM (inactive) in test [7]; 24.5 µM (inactive) in test [8]; 19.9 µM (inactive) in test [9]; 19.3 µM (inactive) in [10]; 15.1 µM (inactive) in test [11]; 44.5 µM (inactive) in test [19]. In addition, the GI50 in test [12] is 47.9 µM (inactive); in test [13], 14.8 µM (inactive); in test [14] it was 28.1 µM (inactive); in [15], 34.4 µM (inactive); in [16] it was 34.3 µM (inactive); in [17], 27.9 µM (inactive). The GI50 in test [18] was 13.6 µM (inactive).
Consider `CCCCCC(=O)CCCCCCCC(O)CC(=O)OCC` (stereo not drawn), for which the GI50 in [1] was > 100 µM (inactive); in test [2], 37.8 µM (inactive); in test [4] it was > 100 µM (inactive); in test [5], > 100 µM (inactive); in [6] it was > 100 µM (inactive); in [7] it was > 100 µM (inactive). Further, the GI50 in [8], in [9], in test [10], in test [11], in [19] and in test [12] was > 100 µM (inactive) throughout. In addition, the GI50 was > 100 µM (inactive) in test [13]; > 100 µM (inactive) in [14]; > 100 µM (inactive) in test [15]; 64.3 µM (inactive) in [16]; > 100 µM (inactive) in test [18].
As to `Cc1cc2[nH]c(=NS(=O)(=O)c3cc(C)c(Cl)cc3S)[nH]c2cc1C`, the GI50 in test [1] was 73.8 µM (inactive); in test [2], > 100 µM (inactive); in test [3], > 100 µM (inactive); in test [4], > 100 µM (inactive); in test [5] it was 51.4 µM (inactive); in [6], > 100 µM (inactive). Further, the GI50 in test [7] was > 100 µM (inactive); in [8], > 100 µM (inactive); in [10], 91.4 µM (inactive); in test [11], 83.8 µM (inactive); in [19] it was 68.9 µM (inactive); in test [12], > 100 µM (inactive). For the same compound, the GI50 in [20] is > 100 µM (inactive); in test [13], 32.7 µM (inactive); in test [14], > 100 µM (inactive); in test [15] it was 56.6 µM (inactive); in test [16], 36.2 µM (inactive); in [17], > 100 µM (inactive). Besides, the GI50 in test [18] was 84.5 µM (inactive).
As for `O=C1C=C(N2CCN(c3ncccn3)CC2)C(=O)c2c(O)ccc(O)c21`, the GI50 in test [1] is > 100 µM (inactive); in test [2] it was > 100 µM (inactive); in [3] it was > 100 µM (inactive); in test [4], > 100 µM (inactive); in [5], 73.1 µM (inactive); in [6], 27.6 µM (inactive). Also, the GI50 was 14.5 µM (inactive) in test [7]; 6.35 µM (inactive) in test [8]; > 100 µM (inactive) in [9]; > 100 µM (inactive) in test [10]; > 100 µM (inactive) in [11]; 21.6 µM (inactive) in [19]. Besides, the GI50 in test [12] was > 100 µM (inactive); in test [13] it was 21.5 µM (inactive); in test [14], > 100 µM (inactive); in test [15], > 100 µM (inactive); in test [16] it was > 100 µM (inactive); in [17], 16.2 µM (inactive). In addition, the GI50 in [18] is > 100 µM (inactive).
Turning to `CC(NC(=O)C1CCC(=O)N1)C(=O)N1CCCC1C(N)=O` (stereo not drawn) ([pGlu]-Ala-Pro-NH2; configuration not given here), the GI50 in [1], in test [2], in test [3], in test [4], in [5] and in test [6] was > 100 µM (inactive) in each case. Moreover, the GI50 in test [7], in test [8], in test [9], in [10], in test [11] and in test [12] was > 100 µM (inactive) in each case. For the same compound, the GI50 in [13], in test [14], in [15], in test [16], in [17] and in test [18] was > 100 µM (inactive) each time.
As to `CC(=O)O[C@H]1C(=O)[C@]2(C)[C@@H](OC(=O)OCC(O)CO)C[C@H]3OC[C@@]3(OC(C)=O)[C@H]2[C@H](OC(=O)c2ccccc2)[C@]2(O)C[C@H](OC(=O)[C@H](O)[C@@H](NC(=O)c3ccccc3)c3ccccc3)C(C)=C1C2(C)C` (stereo partly drawn) [PACLITAXEL CERIBATE], the GI50 in test [1] is 11.1 µM (inactive); in [2] it was < 0.0147 µM (active); in test [3], < 0.01 µM (active); in [4], < 0.01 µM (active); in test [5] it was < 0.01 µM (active); in test [6] it was < 0.01 µM (active). Moreover, the GI50 in test [7] was < 0.01 µM (active); in [10], 1.1 µM (active); in test [11], < 0.01 µM (active); in test [19] it was < 0.01 µM (active); in [12], 14.5 µM (inactive); in test [20], < 0.01 µM (active). Besides, the GI50 in [13] is < 0.01 µM (active); in test [14] it was < 0.01 µM (active); in test [15], < 0.01 µM (active); in test [16] it was < 0.01 µM (active); in test [17] it was < 0.01 µM (active); in test [18], 0.601 µM (active).

These data come from ChEMBL document CHEMBL1201862, “PubChem BioAssay data set” (2004).
